Tests used:
Type in all cases: biochemical
[1] = target: T1, Ron (h) (Homo sapiens, UniProt Q04912); test: Enzymatic activity assay, Ron (h) kinase, [γ-33P]-ATP; details: 10 μM [γ-33P]-ATP, 40 min, room temperature; read-out: Inhibitory Activity on Ron (h) kinase, IC50
T1 construct: purchased
Experimental: (§1) Test samples: the compounds of the present invention, having structures and preparation methods shown above.
(§2) (1) Preparation of Compound Stock Solutions
(§3) Compounds were each dissolved in 100% DMSO to prepare stock solutions with a maximum concentration of 500 μM.
(§4) (2) Preparation of Compound Working Solutions
(§5) The compound stock solutions were diluted to final concentrations of 500 μM, 150 μM, 50 μM, 15 μM, 5 μM, 1.5 μM, 0.5 μM, 0.15 μM and 0.05 μM to prepare compound working solutions (50×).
(3) Preparation of Different Enzymatic Reaction Solutions
Ron (h) enzyme was dissolved in a mixture of 8 mM MOPS (pH 7.0), 0.2 mM EDTA and 250 μM GGMEDIYFEFMGGKKK to prepare an enzyme solution with a final concentration of 40.4 nM. An Mg/ATP mixture of 10 mM magnesium acetate and 10 μM [γ-^33P]-ATP was used to activate the enzymatic reaction.
(§6) The compound working solutions were added to a 384-well plate, with final concentrations of 10000 nM, 3000 nM, 1000 nM, 300 nM, 100 nM, 30 nM, 10 nM, 3 nM and 1 nM, respectively, and then different enzymatic reaction solutions prepared according to the above conditions were added. The reaction solutions were incubated at room temperature for 40 min, and then 0.5% phosphoric acid solutions were added to terminate the reaction. 10 μL of the reaction solution was added dropwise to P30 filter paper which was washed 4 times with a 0.425% phosphoric acid solution and once with methanol and then placed in a scintillation counter for detection. Gray analysis was performed on the results with Image J software, and IC50 values were calculated with GraphPad 5.0 software.

[2] = target: T2, Axl (h) (Homo sapiens, UniProt P30530); test: Enzymatic activity assay, Axl (h) kinase, [γ-33P]-ATP; details: 10 μM [γ-33P]-ATP, 40 min, room temperature; read-out: Inhibitory Activity on Ax1 (h), IC50
T2 construct: purchased
T2 sequence (P30530 26-894): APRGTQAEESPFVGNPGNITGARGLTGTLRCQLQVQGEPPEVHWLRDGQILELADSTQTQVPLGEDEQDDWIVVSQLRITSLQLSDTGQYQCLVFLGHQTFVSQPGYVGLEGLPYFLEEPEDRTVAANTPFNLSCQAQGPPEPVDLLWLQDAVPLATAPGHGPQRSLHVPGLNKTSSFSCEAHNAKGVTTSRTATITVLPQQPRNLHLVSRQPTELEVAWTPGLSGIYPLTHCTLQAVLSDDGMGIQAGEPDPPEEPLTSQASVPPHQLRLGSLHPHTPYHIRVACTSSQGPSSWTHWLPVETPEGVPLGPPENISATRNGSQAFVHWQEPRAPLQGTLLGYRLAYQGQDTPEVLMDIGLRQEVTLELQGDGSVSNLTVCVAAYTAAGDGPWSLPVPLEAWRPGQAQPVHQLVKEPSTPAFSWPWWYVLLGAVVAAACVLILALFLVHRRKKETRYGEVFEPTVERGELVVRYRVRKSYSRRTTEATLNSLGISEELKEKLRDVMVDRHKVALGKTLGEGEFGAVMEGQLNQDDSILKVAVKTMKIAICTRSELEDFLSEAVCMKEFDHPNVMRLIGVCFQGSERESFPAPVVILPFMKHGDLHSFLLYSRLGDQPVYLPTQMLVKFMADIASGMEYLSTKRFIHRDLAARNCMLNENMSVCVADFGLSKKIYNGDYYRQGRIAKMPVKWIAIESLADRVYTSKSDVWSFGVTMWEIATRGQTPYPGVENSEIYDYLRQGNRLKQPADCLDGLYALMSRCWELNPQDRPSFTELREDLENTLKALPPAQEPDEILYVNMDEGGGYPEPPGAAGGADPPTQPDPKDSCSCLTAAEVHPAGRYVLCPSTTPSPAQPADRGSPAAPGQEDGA
Experimental: as §1, §2, §3, §4, §5
(3) Preparation of different enzymatic reaction solutions
Axl (h) enzyme was dissolved in a mixture of 8 mM MOPS (pH 7.0), 0.2 mM EDTA and 250 μM KKSRGDYMTMQIG to prepare an enzyme solution with a final concentration of 1.7 nM. An Mg/ATP mixture of 10 mM magnesium acetate and 10 μM [γ-^33P]-ATP was used to activate the enzymatic reaction.
as §6

[3] = target: T3, LCK (h) (Homo sapiens, UniProt P06239); test: Enzymatic activity assay, LCK (h) kinase, [γ-33P]-ATP; details: 10 μM [γ-33P]-ATP, 40 min, room temperature; read-out: Inhibitory Activity on LCK (h) kinase, IC50
T3 construct: purchased
Experimental: as §1
Preparation of Compound Stock Solutions:
as §3
Preparation of Compound Working Solutions:
as §5
Preparation of Different Enzymatic Reaction Solutions:
LCK (h) enzyme was dissolved in a mixture of 50 mM Tris (pH 7.5), 0.1 mM EGTA, 0.1 mM Na3VO4 and 250 μM KVEKIGEGTYGVVYK to prepare an enzyme solution with a final concentration of 45 nM. An Mg/ATP mixture of 10 mM magnesium acetate and 10 μM [γ-^33P]-ATP was used to activate the enzymatic reaction.
as §6

T1 sequence (Q04912 25-1400): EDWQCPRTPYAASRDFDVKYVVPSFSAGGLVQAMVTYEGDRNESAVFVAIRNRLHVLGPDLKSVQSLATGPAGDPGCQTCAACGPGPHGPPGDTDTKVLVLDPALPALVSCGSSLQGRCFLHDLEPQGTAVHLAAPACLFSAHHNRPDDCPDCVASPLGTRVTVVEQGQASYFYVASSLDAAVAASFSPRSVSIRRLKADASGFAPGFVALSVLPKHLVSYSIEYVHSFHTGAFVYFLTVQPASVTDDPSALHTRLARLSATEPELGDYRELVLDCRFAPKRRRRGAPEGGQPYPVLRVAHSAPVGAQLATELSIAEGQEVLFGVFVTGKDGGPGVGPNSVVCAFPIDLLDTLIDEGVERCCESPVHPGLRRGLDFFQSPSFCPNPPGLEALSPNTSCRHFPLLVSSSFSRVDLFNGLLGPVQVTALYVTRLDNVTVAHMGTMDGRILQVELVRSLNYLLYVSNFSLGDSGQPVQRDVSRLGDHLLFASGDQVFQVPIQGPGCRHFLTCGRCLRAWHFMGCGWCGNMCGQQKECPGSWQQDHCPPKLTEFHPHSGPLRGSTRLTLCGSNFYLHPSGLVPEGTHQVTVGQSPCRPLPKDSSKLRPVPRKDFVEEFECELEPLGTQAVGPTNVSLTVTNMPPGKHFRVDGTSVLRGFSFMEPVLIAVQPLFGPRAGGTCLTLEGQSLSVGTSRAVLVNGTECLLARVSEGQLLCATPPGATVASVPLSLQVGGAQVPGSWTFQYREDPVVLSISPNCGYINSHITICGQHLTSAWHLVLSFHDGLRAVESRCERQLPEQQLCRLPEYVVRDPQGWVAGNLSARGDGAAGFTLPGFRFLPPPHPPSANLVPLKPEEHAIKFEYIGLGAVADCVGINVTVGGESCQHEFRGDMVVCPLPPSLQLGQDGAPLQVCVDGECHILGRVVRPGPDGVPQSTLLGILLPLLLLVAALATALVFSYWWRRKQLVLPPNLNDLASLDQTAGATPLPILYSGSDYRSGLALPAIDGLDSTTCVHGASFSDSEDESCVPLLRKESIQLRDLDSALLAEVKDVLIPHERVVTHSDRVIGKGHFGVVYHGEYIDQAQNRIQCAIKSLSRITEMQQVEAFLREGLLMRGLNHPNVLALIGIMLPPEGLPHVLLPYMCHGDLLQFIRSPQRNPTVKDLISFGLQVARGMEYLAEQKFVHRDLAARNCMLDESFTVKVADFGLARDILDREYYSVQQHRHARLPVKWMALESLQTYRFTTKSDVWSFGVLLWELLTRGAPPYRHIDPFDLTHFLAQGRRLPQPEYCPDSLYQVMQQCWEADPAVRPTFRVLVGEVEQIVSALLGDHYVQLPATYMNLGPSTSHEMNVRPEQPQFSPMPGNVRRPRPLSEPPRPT
T3 sequence (P06239 whole entry): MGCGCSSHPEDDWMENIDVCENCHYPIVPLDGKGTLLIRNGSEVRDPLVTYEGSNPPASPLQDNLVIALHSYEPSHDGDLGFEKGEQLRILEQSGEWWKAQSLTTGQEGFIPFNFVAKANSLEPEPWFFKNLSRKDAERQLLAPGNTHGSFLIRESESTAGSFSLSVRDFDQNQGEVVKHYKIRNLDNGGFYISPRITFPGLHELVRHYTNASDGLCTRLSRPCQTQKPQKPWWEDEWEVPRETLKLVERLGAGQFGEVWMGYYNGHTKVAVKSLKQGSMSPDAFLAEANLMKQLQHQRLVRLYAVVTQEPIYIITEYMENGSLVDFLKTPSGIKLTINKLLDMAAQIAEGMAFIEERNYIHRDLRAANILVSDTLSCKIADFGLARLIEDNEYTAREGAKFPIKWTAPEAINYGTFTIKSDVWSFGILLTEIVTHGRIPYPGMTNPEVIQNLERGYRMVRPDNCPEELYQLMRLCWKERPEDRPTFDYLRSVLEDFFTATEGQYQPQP

Row | IC50 [1] [nM] | IC50 [2] [nM] | IC50 [3] [nM] | SMILES
1 | 2 | 6 | 20 | CC(C)n1cc(-c2ccc(F)cc2)c(=O)c(C(=O)Nc2ccc(Oc3ccnc(N)c3Cl)cn2)n1 [Compound 11, N-(5-((2-amino-3-chloropyridin-4-yl)oxy)pyridin-2-yl)-5-(4-fluorophenyl)-1-isopropyl-4-oxo-1,4-dihydropyridazine-3-carboxamide]
2 | 19 | 23 | 53 | CC(C)n1cc(-c2ccc(F)cc2)c(=O)c(C(=O)Nc2ncc(Oc3ccnc(N)c3Cl)cn2)n1 [Compound 12, N-(5-((2-amino-3-chloropyridin-4-yl)oxy)pyrimidin-2-yl)-5-(4-fluorophenyl)-1-isopropyl-4-oxo-1,4-dihydropyridazine-3-carboxamide]
3 | 16 | 9 | 132 | CC(C)n1cc(-c2ccc(F)cc2)c(=O)c(C(=O)Nc2ccc(Oc3ccnc(N)c3Cl)nc2)n1 [Compound 13, N-(6-((2-amino-3-chloropyridin-4-yl)oxy)pyridin-3-yl)-5-(4-fluorophenyl)-1-isopropyl-4-oxo-1,4-dihydropyridazine-3-carboxamide]
4 | 7 | 9 | 24 | Nc1nccc(Oc2ccc(NC(=O)c3nn(C4CC4)cc(-c4ccc(F)cc4)c3=O)nc2)c1Cl [Compound 17, N-(5-((2-amino-3-chloropyridin-4-yl)oxy)pyridin-2-yl)-1-cyclopropyl-5-(4-fluorophenyl)-4-oxo-1,4-dihydropyridazine-3-carboxamide]
5 | 14 | 8 | – | Nc1nccc(Oc2cnc(NC(=O)c3nn(C4CC4)cc(-c4ccc(F)cc4)c3=O)nc2)c1Cl [Compound 18, N-(5-((2-amino-3-chloropyridin-4-yl)oxy)pyrimidin-2-yl)-5-(4-fluorophenyl)-1-cyclopropyl-4-oxo-1,4-dihydropyridazine-3-carboxamide]
6 | 64 | 12 | 104 | Nc1nccc(Oc2ccc(NC(=O)c3nn(C4CC4)cc(-c4ccc(F)cc4)c3=O)cn2)c1Cl [Compound 19, N-(6-((2-amino-3-chloropyridin-4-yl)oxy)pyridin-3-yl)-1-cyclopropyl-5-(4-fluorophenyl)-4-oxo-1,4-dihydropyridazine-3-carboxamide]
7 | 17 | 12 | 26 | Cn1cc(-c2ccc(F)cc2)c(=O)c(C(=O)Nc2ccc(Oc3ccnc(N)c3Cl)cn2)n1 [Compound 33, N-(5-((2-amino-3-chloropyridin-4-yl)oxy)pyridin-2-yl)-5-(4-fluorophenyl)-1-methyl-4-oxo-1,4-dihydropyridazine-3-carboxamide]
8 | 5 | 4 | 20 | C=CCn1cc(-c2ccc(F)cc2)c(=O)c(C(=O)Nc2ccc(Oc3ccnc(N)c3Cl)cn2)n1 [Compound 35, 1-allyl-N-(5-((2-amino-3-chloropyridin-4-yl)oxy)pyridin-2-yl)-5-(4-fluorophenyl)-4-oxo-1,4-dihydropyridazine-3-carboxamide]
9 | 12 | 9 | – | C=CCn1cc(-c2ccc(F)cc2)c(=O)c(C(=O)Nc2ncc(Oc3ccnc(N)c3Cl)cn2)n1 [Compound 37]
10 | 12 | 12 | 95 | C=CCn1cc(-c2ccc(F)cc2)c(=O)c(C(=O)Nc2ccc(Oc3ccnc(N)c3Cl)nc2)n1 [Compound 39, 1-allyl-N-(6-((2-amino-3-chloropyridin-4-yl)oxy)pyridin-3-yl)-5-(4-fluorophenyl)-4-oxo-1,4-dihydropyridazine-3-carboxamide]

Reference: patent US20220298146A1, “HETEROCYCLIC DERIVATIVE AND USE THEREOF” (Transthera Sciences (Nanjing), Inc., priority 2019, published 2022)
